# In patent US10617672B2, “Liposome composition co-encapsulating doxorubicin and a prodrug of mitomycin C” (LIPOMEDIX PHARMACEUTICALS LTD., priority 2015, dated 2020):
# Read-outs that look alike come from different tables or passages of the source.
# What was measured:
# 4T1 breast tumor = experiment: Antitumor activity in mouse 4T1 breast tumor model; format: in vivo; settings: BALB/c mice, single i.v. dose eight days after inoculation
# Method: BALB/c mice were inoculated intravenously with 100,000 cells 4T1 breast cancer cells to produce tumors. Three were approximately eight tumor-bearing mice in each of the treatment groups.
# Eight days after inoculation, the test formulations were administered intravenously.
# [1] = system: N-87 gastric carcinoma cells; experiment: In vitro cytotoxicity, methylene blue staining, 72 h; format: cell-based, human; settings: N-87 cells, 72 hours at 37° C.
# Method: (§1) For comparison, liposomes with entrapped doxorubicin with ammonium sulfate gradient and a coating of polyethyleneglycol (PEG) (available under the tradename DOXIL®), liposomes with the mitomycin C prodrug conjugate incorporated into the lipid bilayer and a coating of PEG (sometimes referred to in the literature by the tradename PROMITIL®) were also evaluated in the cell lines, along with free doxorubicin and liposomes with encapsulated doxorubicin with ammonium alendronate gradient and a coating of PEG (U.S. 2014/0328899, incorporated by reference herein).
# (§2) In the cytotoxicity assay, cells were seeded in 96-multiwell plates. After overnight incubation, the drugs or liposome compositions were added at various concentrations and cells were incubated further for a total exposure of 72 hrs. Cell growth was evaluated colorimetrically with methylene blue staining and growth rates and IC50 values were calculated as known in the literature.
# [2] = system: T24 bladder cancer carcinoma cells; experiment: as above; format: cell-based, human; settings: 72 hours at 37° C.
# Method: as §1, §2
# [3] = system: IGrov-1 ovarian carcinoma cells; experiment: as above; format: cell-based, human; settings: IGrov-1 cells, 72 hours at 37° C.
# Method: as §1, §2
# [4] = system: multidrug resistant M109R lung carcinoma cells; experiment: as above; format: cell-based; settings: 72 hours at 37° C.
# Method: as §1, §2
# NCI/ADR cells = experiment: as above; format: cell-based; settings: 72 hours at 37° C.
# Method: as §1, §2
# [5] = system: T-24 bladder cancer cells; experiment: Cell uptake of doxorubicin and mitomycin C prodrug conjugate; format: cell-based, human; settings: T-24 cells, 3 hours of incubation; doxorubicin 6.5 μmoles/L (3.7 μg/mL), MLP 5 μmoles/L (5.7 μg/mL)
# Method: In brief, the liposomal compositions or free doxorubicin were incubated for 3 hours with the cell lines at a doxorubicin concentration of 6.5 μmoles/L (3.7 μg/mL) and final mitomycin C lipid prodrug conjugate concentration of 5 μmoles/L (5.7 μg/mL).
# Cell uptake studies were done as follows. 1×10^6 cells were incubated for 3 hours with the various test agents at a doxorubicin concentration of 6.5 μmoles/mL (3.7 μg/mL) and final mitomycin C lipid prodrug conjugate concentration of 5 μmoles/mL (5.7 μg/mL) and a phospholipid concentration similar to that of liposomes with entrapped doxorubicin (40 nanomoles/mL).
# [6] = as doxorubicin concentration, read-out: IC50 of doxorubicin
# [7] = as mitomycin C concentration, read-out: IC50 of Mitomycin C
smiles,measurement,setting,value
"COc1cccc2c1C(=O)c1c(O)c3c(c(O)c1C2=O)C[C@@](O)(C(=O)CO)C[C@@H]3O[C@H]1C[C@H](N)[C@H](O)[C@H](C)O1 [free doxorubicin, doxorubicin]",time after treatment at which tumor approached 5.5 mm,4T1 breast tumor,10 days
same,"tumor growth (FIG. 15), in words",4T1 breast tumor; doses in Example 7,continued and rapid tumor growth
same,IC50,[1]; [6],190 nM
same,IC50,"[2]; as doxorubicin concentration, read-out: C50 of doxorubicin",100 nM
same,IC50,[3]; [6],1100 nM
same,IC50,[4]; [6],8.7 µM
same,IC50,NCI/ADR cells; [6],2500 nM
same,Doxorubicin Concentration,[5],739 ng/10^6 cells
"CO[C@@]12[C@H](COC(N)=O)C3=C(C(=O)C(C)=C(N)C3=O)N1C[C@@H]1N[C@@H]12 [free mitomycin C, mitomycin C]",IC50,[1]; [7],180 nM
same,IC50,[2]; [7],50 nM
same,IC50,[3]; [7],700 nM
same,IC50,[4]; [7],0.3 µM
same,IC50,NCI/ADR cells; [7],400 nM
